ChEMBL document CHEMBL1124263 (J Med Chem, 1988)

Columns and labels:
[1] = biological target: T1, Serotonin 2 (5-HT2) receptor (Rattus norvegicus, UniProt P30994+P08909+P14842); assay: Ability to displace 0.75 nM [3H]ketanserin in 5-hydroxytryptamine 2 receptor from rat frontal cortex homogenate; assay type: tissue-based
[2] = biological target: 5-hydroxytryptamine receptor 1B (Rattus norvegicus, UniProt P28564); assay: biochemical
[3] = biological target: T1, Serotonin 2 (5-HT2) receptor

5-hydroxytryptamine receptor 1B, sequence (P28564 whole entry): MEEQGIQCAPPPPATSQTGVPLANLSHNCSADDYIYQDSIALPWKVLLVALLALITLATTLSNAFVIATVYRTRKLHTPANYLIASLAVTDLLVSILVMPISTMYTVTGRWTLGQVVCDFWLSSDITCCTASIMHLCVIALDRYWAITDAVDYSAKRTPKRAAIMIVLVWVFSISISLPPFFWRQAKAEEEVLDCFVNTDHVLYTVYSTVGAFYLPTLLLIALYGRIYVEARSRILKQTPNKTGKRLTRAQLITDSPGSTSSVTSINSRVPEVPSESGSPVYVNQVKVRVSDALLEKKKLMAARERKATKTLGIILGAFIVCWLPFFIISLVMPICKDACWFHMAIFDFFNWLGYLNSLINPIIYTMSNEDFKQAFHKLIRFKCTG

SMILES | Ki [1] | Ki [2] | Log Ki [3]
COc1ccc2c(C[C@H](C)N)c[nH]c2c1 | > 10000 nM | 7240 nM | 
COc1ccc2[nH]cc(C[C@H](C)N)c2c1 |  | 417 nM | -6.15
C[C@H](N)Cc1c[nH]c2cccc(O)c12 |  | 4070 nM | -5.21
C[C@@H](N)Cc1c[nH]c2cccc(O)c12 |  | 1550 nM | -5.46
COc1ccc2c(C[C@@H](C)N)c[nH]c2c1 | > 10000 nM | 2140 nM | 
COc1cccc2[nH]cc(C[C@@H](C)N)c12 |  | 776 nM | -5.84
COc1ccc2[nH]cc(C[C@@H](C)N)c2c1 |  | 380 nM | -5.89
COc1cccc2[nH]cc(C[C@H](C)N)c12 |  | 2690 nM | -6.02
